Measurements reported in US20130266636A1, “METHODS FOR BLOCKING CELL PROLIFERATION AND TREATING DISEASES AND CONDITIONS RESPONSIVE TO CELL GROWTH INHIBITION” (THE REGENTS OF THE UNIVERSITY OF CALIFORNIA, priority 2010, published 2013).
“Also recorded” adds a separate entry of the source.

Columns and labels:
[1] = system: human breast (T47D) carcinoma cell line; assay: Cell viability assay in T47D cells; assay type: cell-based
XPA-1 cells = assay: Cell cycle analysis, bright field and confocal microscopy of XPA-1 cells; assay type: cell-based, human
Experimental: FIG. 38. […] FIG. 38(a) Bright field images (scale bar, 20 μm), cell cycle analysis and confocal microscopy images (scale bar, 10 μm, laminB in red and DNA in blue) of XPA-1 cells treated for 20 hours with the allosteric RAF inhibitor KG5, the ATP-competitive inhibitor Sorafenib, the MEK inhibitor PD0325901, the control compound KG1 at 5 μM or paclitaxel at 200 nM. Cells were harvested after 20 hours and the cell cycle stage was determined by flow cytometry and confocal microscopy. White arrows indicate cells arrested at pro-metaphase. Scale bars, 10 μm. FIG. 38(b) Representative confocal microscopy images of untreated XPA-1 tumor cells undergoing mitosis (left image) and XPA-1 cell arrested with KG5 at pro-metaphase (right image). Cells were stained with α-tubulin in red and DNA in blue. Scale bar, 10 μm. FIG. 38(c) XPA-1 cells transfected with a vector control or active MEK were treated with 1 μM KG5 for 20 hours or left untreated and the G2/M population was quantified by flow cytometry. Error bars represent s.d. (n=3); * two tailed p value=0.00063 using a Mann Whitney U test. FIG. 38(d) Immunoblot analysis of XPA-1 cells untreated or treated with 1 μM KG5 for 18 hours. Data are representative of four independent experiments. […] Error bars represent s.d. (n=3); * two tailed p value=0.010 using a Mann Whitney U test. Inset, Immunoblot analysis of HCT-116 cells untreated or treated with 1 μM KG5 for 18 hours.
FIG. 39. […] FIG. 39 graphically illustrates cell cycle analysis of XPA-1 cells treated with the allosteric RAF inhibitor KG5, the microtubule stabilizer paclitaxel, or the ATP-competitive RAF inhibitors sorafenib, L-779450, GW 5074, and ZM-336372. Cells were harvested after 6, 18, 24, 48 and 72 hours and the percentages of cells in G2/M and SubG1 were determined by flow cytometry. Data are representative of three independent experiments.
Cell cycle analysis was performed by flow cytometry following propidium iodide staining. Briefly, cells were harvested, fixed with ice cold methanol, treated for 45 min with 10 μg/ml of RNase and resuspended in PBS containing 10 μg/ml of PI, and analyzed by flow cytometry. Cell cycle analysis was performed in cells treated for 18 hours with the allosteric RAF inhibitor KG5, the ATP-competitive RAF inhibitors: sorafenib, L-779450, GW5074, and ZM-336372, the MEK inhibitor (PD0325901) at […] concentration or paclitaxel at 100 nM.

p-MEK and p-ERK = conditions: cited from earlier work
PDGFRβ = PDGFRβ (Homo sapiens, UniProt P09619); conditions: in response to PDGF-BB; cited from earlier work
Flt-3 = Flt-3 (Homo sapiens, UniProt P36888); conditions: cited from earlier work
PDGFR = conditions: cited from earlier work
[2] = biological target: RAF dimerization (BRAF and CRAF) (Homo sapiens, UniProt P04049); assay: RAF dimerization, immunoblot of BRAF and CRAF immunoprecipitates from XPA-1 cells; assay type: cell-based; parameters: immunoblot analysis of BRAF and CRAF immunoprecipitates from XPA-1 cells; endogenous in cells; host or cells: XPA-1
Experimental: FIGS. 6 and 7 illustrate immunoblot analysis of CRAF immunoprecipitated from XPA-1 cells treated with KG5 and KG38.
FIG. 14 illustrates immunoblot analysis of BRAF and CRAF immunoprecipitates from XPA-1 cells treated with PD0325901, Sorafenib, L-779450, PLX4720, KG5 or KG1.
Immunoprecipitation and Immunoblot Analysis Cells were lysed in either NP40 lysis buffer (150 mM NaCl, 50 mM Tris Base pH 7.4, 1% NP40) or RIPA buffer (50 mM Tris pH 7.4, 100 mM NaCl, 0.1% SDS) supplemented with complete protease inhibitor mixture (Roche), 50 mM NaF and 1 mM Na3VO4 and centrifuged at 13,000×g for 10 min at 4° C. Protein concentration was determined by BCA assay. […] of protein were immunoprecipitated with […] of anti-Flag (Sigma), anti-CRAF (BD Pharmingen), anti-Plk1 (Abcam), anti-γ-Tubulin (sigma) or anti-cenpF (Santa Cruz) antibodies overnight at 4° C. followed by capture with 25 μl of protein A/G (Pierce). Beads were washed five times, eluted in boiling Laemmli buffer, resolved on 10% SDS-PAGE and immunoblotting was performed with anti-Plk1 antibody (Abcam), anti-CRAF antibody (BD Pharmingen), anti-Aurora A (Abcam), anti-phospho-S338 CRAF (Cell Signaling), anti-phospho-T210 Plk1 or anti-phospho-T288 Aurora A (Cell signaling) diluted 1:1000. For immunoblot analysis, […] of protein was boiled in […]

Sequence of RAF dimerization (BRAF and CRAF) (P04049 whole entry): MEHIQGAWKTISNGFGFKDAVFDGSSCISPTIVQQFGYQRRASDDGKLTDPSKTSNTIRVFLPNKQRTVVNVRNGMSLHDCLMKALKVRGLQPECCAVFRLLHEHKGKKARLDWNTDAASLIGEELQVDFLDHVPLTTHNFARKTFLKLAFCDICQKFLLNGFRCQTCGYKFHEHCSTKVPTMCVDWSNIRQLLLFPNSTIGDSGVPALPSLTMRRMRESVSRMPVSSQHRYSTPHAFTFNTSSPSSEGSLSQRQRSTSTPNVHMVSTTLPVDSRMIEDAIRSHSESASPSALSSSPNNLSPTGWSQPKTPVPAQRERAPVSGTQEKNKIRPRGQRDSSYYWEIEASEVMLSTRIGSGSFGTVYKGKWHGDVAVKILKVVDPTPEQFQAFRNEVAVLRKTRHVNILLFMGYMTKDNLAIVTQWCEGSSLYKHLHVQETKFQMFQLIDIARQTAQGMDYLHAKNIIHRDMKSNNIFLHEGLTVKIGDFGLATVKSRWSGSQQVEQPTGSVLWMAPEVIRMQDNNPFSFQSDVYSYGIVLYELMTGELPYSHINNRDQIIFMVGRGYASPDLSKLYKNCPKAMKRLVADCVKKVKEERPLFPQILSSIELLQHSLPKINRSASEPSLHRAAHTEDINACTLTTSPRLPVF
Sequence of PDGFRβ (P09619 33-1106, species assumed): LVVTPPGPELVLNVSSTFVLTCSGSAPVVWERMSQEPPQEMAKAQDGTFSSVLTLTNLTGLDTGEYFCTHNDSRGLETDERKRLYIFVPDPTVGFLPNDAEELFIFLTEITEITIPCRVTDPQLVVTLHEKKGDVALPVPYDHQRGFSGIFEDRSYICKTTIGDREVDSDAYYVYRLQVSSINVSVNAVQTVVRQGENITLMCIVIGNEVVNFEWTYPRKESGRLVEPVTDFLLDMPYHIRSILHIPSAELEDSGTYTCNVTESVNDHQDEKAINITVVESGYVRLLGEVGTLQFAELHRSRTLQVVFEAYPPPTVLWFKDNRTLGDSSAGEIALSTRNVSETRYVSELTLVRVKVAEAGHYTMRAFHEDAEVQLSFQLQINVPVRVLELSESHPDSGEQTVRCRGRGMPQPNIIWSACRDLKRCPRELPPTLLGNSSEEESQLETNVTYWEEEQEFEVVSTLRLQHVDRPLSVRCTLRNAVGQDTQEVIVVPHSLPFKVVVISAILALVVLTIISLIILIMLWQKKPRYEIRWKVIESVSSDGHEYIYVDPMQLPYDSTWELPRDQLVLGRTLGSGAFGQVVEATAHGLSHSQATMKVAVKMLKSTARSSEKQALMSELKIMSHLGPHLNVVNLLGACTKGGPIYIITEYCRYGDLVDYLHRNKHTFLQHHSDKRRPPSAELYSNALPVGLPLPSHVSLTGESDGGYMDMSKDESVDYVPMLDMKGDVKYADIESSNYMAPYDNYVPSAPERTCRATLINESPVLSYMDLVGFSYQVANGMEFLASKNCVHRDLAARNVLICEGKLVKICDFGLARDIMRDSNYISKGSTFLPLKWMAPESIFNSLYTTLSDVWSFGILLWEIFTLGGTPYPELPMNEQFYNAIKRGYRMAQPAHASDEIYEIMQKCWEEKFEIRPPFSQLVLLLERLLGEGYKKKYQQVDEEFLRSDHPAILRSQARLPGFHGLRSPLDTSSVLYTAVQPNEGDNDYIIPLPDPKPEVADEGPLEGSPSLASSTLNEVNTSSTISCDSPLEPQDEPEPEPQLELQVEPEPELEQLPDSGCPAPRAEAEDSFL
Sequence of Flt-3 (P36888 27-993, species assumed): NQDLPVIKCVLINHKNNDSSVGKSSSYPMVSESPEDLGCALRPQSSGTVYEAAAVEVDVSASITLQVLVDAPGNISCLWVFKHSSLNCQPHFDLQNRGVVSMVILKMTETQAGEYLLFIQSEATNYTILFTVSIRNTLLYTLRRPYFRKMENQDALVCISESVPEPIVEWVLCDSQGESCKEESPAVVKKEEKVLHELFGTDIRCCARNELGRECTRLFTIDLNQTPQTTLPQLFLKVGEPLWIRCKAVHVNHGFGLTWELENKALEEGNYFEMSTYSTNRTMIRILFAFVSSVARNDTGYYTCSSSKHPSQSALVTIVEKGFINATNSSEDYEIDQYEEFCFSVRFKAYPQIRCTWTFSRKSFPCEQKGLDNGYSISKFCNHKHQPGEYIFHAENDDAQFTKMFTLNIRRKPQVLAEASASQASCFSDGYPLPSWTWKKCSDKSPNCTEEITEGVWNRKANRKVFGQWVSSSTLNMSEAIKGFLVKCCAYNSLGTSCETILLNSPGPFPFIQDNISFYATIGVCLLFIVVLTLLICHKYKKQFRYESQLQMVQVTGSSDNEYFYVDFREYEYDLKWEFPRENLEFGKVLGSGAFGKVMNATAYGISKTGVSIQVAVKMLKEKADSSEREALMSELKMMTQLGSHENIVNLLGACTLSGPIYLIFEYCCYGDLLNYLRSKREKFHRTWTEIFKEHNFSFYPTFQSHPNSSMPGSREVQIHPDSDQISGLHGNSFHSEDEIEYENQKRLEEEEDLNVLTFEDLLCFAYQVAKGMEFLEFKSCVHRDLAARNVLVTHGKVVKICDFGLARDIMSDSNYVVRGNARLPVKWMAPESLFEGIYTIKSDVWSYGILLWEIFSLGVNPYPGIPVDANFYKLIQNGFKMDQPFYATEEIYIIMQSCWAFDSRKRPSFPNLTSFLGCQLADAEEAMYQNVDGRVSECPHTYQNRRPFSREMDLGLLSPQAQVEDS

Structure (SMILES): CSc1nc(N)cc(Oc2ccc(-c3nnc(Nc4cccc(C(F)(F)F)c4)[nH]3)cc2)n1 [KG5]
- cell viability ([1]; T47D): decrease cell viability
- EC50 ([1]; T47D breast cancer cells): approach picomolar (pM) EC50s
- rescue of KG5 effect on cell proliferation by ectopic active MEK (G2/M population) (XPA-1 cells; XPA-1 cells transfected with active MEK, 1 μM KG5, 20 hours): failed to rescue
- arrest at pro-metaphase (confocal microscopy) (XPA-1 cells; XPA-1 cells, 20 hours): arrests cells at pro-metaphase
- cell cycle arrest in G2/M (flow cytometry) (XPA-1 cells; XPA-1 cells, 20 hours): arrested in G2/M; also recorded: arrests cells in G2/M; also recorded: induces a G2/M arrest followed by cell death
- cell appearance and mitotic function (bright field images) (XPA-1 cells; XPA-1 cells, 20 hours, same concentration (5 μM, FIG. 38a)): look arrested in mitosis; also recorded: rounded and arrested in mitosis
- p-MEK and p-ERK (p-MEK and p-ERK; bFGF- or VEGF-stimulated endothelial cells): blocked
- bFGF- or VEGF-mediated phosphorylation of MEK on S217/S221 (p-MEK and p-ERK; endothelial cells): inhibited
- bFGF- or VEGF-mediated phosphorylation of MEK on S298 (p-MEK and p-ERK; endothelial cells): not on S298
- PDGFRβ autophosphorylation (PDGFRβ): directly impacts PDGFRβ autophosphorylation
- inhibition of Flt-3 (Flt-3): inhibits
- inhibition of PDGFR (PDGFR): inhibits
- RAF dimerization [2]: prevents RAF dimerization
